The values that follow come from patent US5962314A, “Calcium receptor-active molecules” (priority 1997, dated 1999).

“Also recorded” adds a separate entry of the source.

One test has as its target T1, C-cell calcium receptor (Rattus norvegicus, UniProt P48442).
T1 construct: Neoplastic C-cells derived from a rat medullary thyroid carcinoma (rMTC 6-23); host or cells: rMTC 6-23 cells
T1 sequence (P48442 20-1079): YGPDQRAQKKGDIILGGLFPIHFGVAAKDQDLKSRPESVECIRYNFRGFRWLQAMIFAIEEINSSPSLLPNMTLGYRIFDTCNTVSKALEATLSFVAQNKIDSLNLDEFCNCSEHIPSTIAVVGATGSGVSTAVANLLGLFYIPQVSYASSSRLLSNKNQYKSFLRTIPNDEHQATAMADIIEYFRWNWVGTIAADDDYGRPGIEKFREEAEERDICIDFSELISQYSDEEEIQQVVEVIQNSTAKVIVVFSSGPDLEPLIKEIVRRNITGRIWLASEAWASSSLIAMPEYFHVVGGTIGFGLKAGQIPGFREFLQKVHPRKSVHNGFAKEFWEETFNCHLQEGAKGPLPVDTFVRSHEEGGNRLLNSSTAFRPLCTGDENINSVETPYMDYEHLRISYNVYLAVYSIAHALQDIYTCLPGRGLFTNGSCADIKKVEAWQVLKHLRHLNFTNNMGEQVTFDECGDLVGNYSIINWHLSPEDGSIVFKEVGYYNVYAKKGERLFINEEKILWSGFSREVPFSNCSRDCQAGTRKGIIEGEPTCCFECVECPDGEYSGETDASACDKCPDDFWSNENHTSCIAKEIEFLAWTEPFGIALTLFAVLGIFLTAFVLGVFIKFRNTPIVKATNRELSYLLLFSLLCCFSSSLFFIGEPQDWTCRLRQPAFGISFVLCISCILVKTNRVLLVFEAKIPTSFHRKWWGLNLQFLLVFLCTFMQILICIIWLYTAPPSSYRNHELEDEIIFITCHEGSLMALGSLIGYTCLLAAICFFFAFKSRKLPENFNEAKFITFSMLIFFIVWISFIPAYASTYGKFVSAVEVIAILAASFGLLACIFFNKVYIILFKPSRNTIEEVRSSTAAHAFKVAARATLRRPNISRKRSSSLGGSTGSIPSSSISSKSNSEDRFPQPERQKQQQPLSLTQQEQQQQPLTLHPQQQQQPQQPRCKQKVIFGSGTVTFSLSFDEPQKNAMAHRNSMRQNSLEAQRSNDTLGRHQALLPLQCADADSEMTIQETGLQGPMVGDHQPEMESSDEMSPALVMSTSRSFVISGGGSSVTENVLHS
The class given is cell-based.

The target in test [1] is T2, bovine parathyroid cell calcium receptor (Bos taurus, UniProt P35384).
T2 construct: expressed in transfected cells; host or cells: Xenopus laevis oocytes injected with BoPCaR 1 cRNA
T2 sequence (P35384 20-1085): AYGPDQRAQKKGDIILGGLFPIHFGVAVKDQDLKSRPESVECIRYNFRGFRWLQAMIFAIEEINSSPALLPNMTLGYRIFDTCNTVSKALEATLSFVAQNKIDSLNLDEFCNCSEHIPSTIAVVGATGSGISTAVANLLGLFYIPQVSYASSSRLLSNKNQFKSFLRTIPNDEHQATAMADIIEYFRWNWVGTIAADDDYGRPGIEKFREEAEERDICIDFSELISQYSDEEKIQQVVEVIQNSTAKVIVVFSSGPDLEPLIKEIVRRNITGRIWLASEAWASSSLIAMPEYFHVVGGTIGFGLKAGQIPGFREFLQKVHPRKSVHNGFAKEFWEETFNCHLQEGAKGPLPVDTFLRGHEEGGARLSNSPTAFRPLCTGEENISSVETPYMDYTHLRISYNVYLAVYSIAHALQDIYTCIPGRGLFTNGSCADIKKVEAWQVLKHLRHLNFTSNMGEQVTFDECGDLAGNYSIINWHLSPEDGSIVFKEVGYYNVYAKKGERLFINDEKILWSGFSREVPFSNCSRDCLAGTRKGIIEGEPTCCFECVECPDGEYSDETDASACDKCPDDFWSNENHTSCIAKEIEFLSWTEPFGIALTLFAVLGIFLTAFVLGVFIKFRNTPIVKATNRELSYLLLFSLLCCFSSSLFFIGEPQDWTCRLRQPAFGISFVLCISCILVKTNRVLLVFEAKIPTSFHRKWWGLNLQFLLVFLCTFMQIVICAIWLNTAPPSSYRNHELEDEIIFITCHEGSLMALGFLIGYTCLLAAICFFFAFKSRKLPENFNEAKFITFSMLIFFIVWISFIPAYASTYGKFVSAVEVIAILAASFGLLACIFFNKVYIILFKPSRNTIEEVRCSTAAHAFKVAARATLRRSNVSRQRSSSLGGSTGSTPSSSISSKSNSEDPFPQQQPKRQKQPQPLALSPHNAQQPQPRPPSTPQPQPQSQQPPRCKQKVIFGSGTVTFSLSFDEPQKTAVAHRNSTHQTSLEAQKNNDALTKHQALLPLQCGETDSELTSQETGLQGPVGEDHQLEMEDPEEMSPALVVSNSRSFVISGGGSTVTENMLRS
Kind of test: Cl- current in Xenopus oocytes expressing BoPCaR 1. The following applies: for effect on Cl- current: BoPCaR 1-injected oocytes; for effect in control oocytes: uninjected, water or rat liver mRNA oocytes. The format is cell-based. As to the method:
Several pharmacological and biochemical criteria were used to identify this clone as encoding a bona fide bovine parathyroid Ca^2+ receptor. […] These responses increased markedly over a period of one to four days after injection of the eggs with cRNA prepared from the BoPCaR 1 cDNA. Furthermore, the ranges of the concentrations of the two cations eliciting this response were very similar to those shown previously to act on bovine parathyroid cells in vitro.
Xenopus oocytes were injected with BoPCaR 1, the 5.3 Kb cDNA encoding a bovine parathyroid cell calcium receptor as described in Example 25. After two to three days, Cl^- currents were examined in the oocytes using a two-electrode voltage clamp.
Xenopus oocytes were injected with BoPCaR 1 as described in Example 25. After two to three days, Cl^- currents were examined in the oocytes using two electrode voltage clamp.

Source text for C-cell calcium receptor: To assess the effects of molecular polycations on C-cells, a neoplastic cell line, derived from a rat medullary thyroid carcinoma (rMTC 6-23 cells) was used.

As to `NC[C@@H]1O[C@H](O[C@H]2[C@@H](O)[C@H](O[C@@H]3[C@@H](O)[C@H](N)C[C@H](N)[C@H]3O[C@H]3O[C@H](CN)[C@@H](O)[C@H](O)[C@H]3N)O[C@@H]2CO)[C@H](N)[C@@H](O)[C@@H]1O` [Neomycin], the “effect on [Ca2+]i in C-cells” value at C-cell calcium receptor was “fails to affect basal or evoked increases in C-cells; also recorded: without effect on basal [Ca^2+ ]i; also recorded: fail to affect the calcium receptors on C-cells or osteoclasts”. Moreover, in test [1], the “effect on Cl- current” value is reported as “large inward currents” and the “effect on Cl- current in absence of extracellular Ca2+” value (“effect on Cl- current in absence” below) is reported as “persist despite removal of extracellular Ca^2+”. Also, the “effective concentration range, Cl- current” value in test [1] (BoPCaR 1 oocytes) lay in the range of 20 to 100 µM.
Take `COc1cccc([C@@H](C)NCCCc2ccccc2Cl)c1` [NPS R-568, (R)-(+)-N-[3-(2-chlorophenyl)propyl]-α-methyl-3-methoxybenzylamine]: in test [1], the “effect on extracellular Ca2+ concentration-response curve” value is listed as “potentiated the responses to submaximal concentrations of extracellular Ca^2+; also recorded: shift the extracellular Ca^2+ concentration-response curve to the left”, the “effect on Cl- current” value is “caused increases in the Cl^-”, the “effect on Cl- current in absence” value is “abolished in the absence of extracellular Ca^2+” and the “effect in control oocytes” value was “failed to evoke responses”.
Regarding `NCCCNCCCCNCCCNCCCNCCCNC(=O)Cc1c[nH]c2ccccc12` [NPS 019], on C-cell calcium receptor, the “effect on [Ca2+]i in C-cells” value is reported as “mobilization of intracellular Ca^2+”. In test [1], the “effect on Cl- current” value is on record as “caused oscillatory increases in the Cl^-”, the “effect on Cl- current in absence” value is “persisted in the absence of extracellular Ca^2+” and the “effect in control oocytes” value is “Neither NPS 017 nor NPS 019 elicited changes in Cl^-”.
